According to PubChem BioAssay AID1918947 (Molecular Pharmacology Branch, DTP, NCI, 2023):

System: A498 complex spheroid viability
Test: Anticancer human tumor A498 cell line growth inhibition;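 note: spheroids exposed to agents for seven days before readout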;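 for viability, T/C: 100% = DMSO vehicle-treated spheroids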
Details: for IC50: curve of first compound; for viability, T/C: stronger effect = lower value
Source text: Multicellular complex tumor spheroid response to LSD1 Inhibitor Iadademstat in combination with a variety of drugs and investigational agents in selected tumor cell lines
The current study was undertaken to assess response to LSD1 inhibitors in combination with standard-of-care drugs and investigational agents in solid tumor complex spheroid models as well as in the K-562 leukemia. Complex spheroids include a stromal component modeled by human endothelial cells (HUVEC) and fibroblasts modeled by human mesenchymal stem cells (MSCs). The concentration ranges selected for each drug and investigational agent were based upon clinically achievable concentrations if the clinical Cmax of the agent was known.
Compounds. The drugs and investigational agents used in this study are listed on Table 1. All of the agents used, including staurosporine (NSC755774) and gemcitabine (NSC613327), were obtained from the Developmental Therapeutics Program, NCI. FDA-approved anticancer drugs are available from the NCI at http://dtp.nci.nih.gov/branches/dscb/oncology_drugset_explanation.html. Drugs and investigational agents were >95% pure by proton nuclear magnetic resonance (NMR) and liquid chromatography/mass spectrometry (LC/MS). Stock solutions were prepared at 400x in DMSO, stored at -70 degrees C, and diluted in fresh medium prior to their use. The final concentration of DMSO in cell culture wells never exceeded 0.25% (v/v). The FDA-approved anticancer drug set is available from the Developmental Therapeutics Program at https://dtp.cancer.gov/organization/dscb/obtaining/available_plates.htm. All drugs and investigational agents were tested over a range starting from a high concentration at or near the clinical Cmax and decreasing in half-log increments. If the clinical Cmax for an agent had not been determined, the highest concentration tested was 10 microM.
Cell Lines. The patient-derived cancer cell (PDC) lines: 292921-168-R-J2-PDC, K24384-001-R-PDC, and 521955-158-R2-J5-PDC pancreatic carcinomas, 556581-035-R-J1 ovarian carcinoma, 324938-238-R-J1-PDC, 855422-203-R-J1-PDC and 883617-216-R-J1-PDC urothelial bladder carcinomas, 743489-274-T-PDC renal cell carcinoma, 138582-R-J1 Merkel cell tumor, K60290-347-R-J1 and K57222-313-R-J1-PDC glioblastomas, 653999-131-R-J2-PDC, LG0703-F948-PDC, and 349418-098-R-PDC non-small cell lung carcinomas, 885512-296-R-J2-PDC, 171881-019-R-J1-PDC breast carcinomas and 186277-243-T-J2-PDC and 233499-124-R-J2-PDC colon carcinomas were obtained from the NCI Patient-Derived Models Repository (PDMR, https://pdmr.cancer.gov). The established cell lines NCI/ADR-RES (RRID:CVCL_14520 and OVCAR-5 (RRID:CVCL_1628) ovarian carcinomas, 786-O (RRID:CVCL_1051) and A498 (RRID:CVCL_A498) renal cell carcinoma, NCI-H211 (ATCC, cat. CRL-5824; RRID:CVCL_1529), NCI-H196 (ATCC, cat. CRL-5823, RRID:CVCL_1509), SW 1271 (ATCC, cat. CRL-2177, RRID:CVCL_1716) and NCI-H1876 (ATCC, cat. CRL-5902, RRID:CVCL_1503) small cell lung carcinomas, MDA-MB-231 (RRID:CVCL_0062) and MDA-MB-468 (RRID:CVCL_0419)breast carcinomas (10-12). Pooled donor human umbilical vein endothelial cells (HUVEC, Lonza, cat. CC-2519) and human mesenchymal stem cells (hMSC, Lonza, cat. PT-2501) were purchased from Lonza (Walkersville, MD).
Cell Culture. All cells were maintained in an incubator at 37 degrees C and 5% CO2 with 95% humidity. The PDC lines were cultured according to standard operating procedures established by the NCI PDMR (https://pdmr.cancer.gov). Briefly all PDCs were thawed and cultured in Matrigel-coated flasks prepared with a working solution of 1X Ham's F-12 nutrient mix, without supplementation (Invitrogen, Waltham, MA, cat. 11765054), 100 U/mL penicillin-streptomycin (Invitrogen, cat. 15140122), and 2.5% Matrigel (Corning Inc., Corning, NY, cat. 354248) for the first three passages. […]

[1] = second compound 0.1 µM, first compound 0.00949 µM
[2] = second compound 0.1 µM, first compound 0.03 µM
[3] = second compound 0.1 µM, first compound 0.0949 µM
[4] = second compound 0.1 µM, first compound 0.3 µM
[5] = second compound 0.1 µM, first compound 0.949 µM
[6] = second compound 0.1 µM, first compound 3 µM
[7] = second compound 0.316 µM, first compound 0.00949 µM
[8] = second compound 0.316 µM, first compound 0.03 µM
[9] = second compound 0.316 µM, first compound 0.0949 µM
[10] = second compound 0.316 µM, first compound 0.3 µM
[11] = second compound 0.316 µM, first compound 0.949 µM
[12] = second compound 0.316 µM, first compound 3 µM
[13] = second compound 1 µM, first compound 0.00949 µM
[14] = second compound 1 µM, first compound 0.03 µM
[15] = second compound 1 µM, first compound 0.0949 µM
[16] = second compound 1 µM, first compound 0.3 µM
[17] = second compound 1 µM, first compound 0.949 µM
[18] = second compound 1 µM, first compound 3 µM
[19] = second compound 3.16 µM, first compound 0.00949 µM
[20] = second compound 3.16 µM, first compound 0.03 µM
[21] = second compound 3.16 µM, first compound 0.0949 µM
[22] = second compound 3.16 µM, first compound 0.3 µM
[23] = second compound 3.16 µM, first compound 0.949 µM
[24] = second compound 3.16 µM, first compound 3 µM
[25] = second compound 10 µM, first compound 0.00949 µM
[26] = second compound 10 µM, first compound 0.03 µM
[27] = second compound 10 µM, first compound 0.0949 µM
[28] = second compound 10 µM, first compound 0.3 µM
[29] = second compound 10 µM, first compound 0.949 µM
[30] = second compound 10 µM, first compound 3 µM

Row | SMILES | IC50 (second compound 0.1 µM) | IC50 (second compound 0.316 µM) | IC50 (second compound 1 µM) | IC50 (second compound 3.16 µM) | IC50 (second compound 10 µM) | viability, T/C [1] | viability, T/C [2] | viability, T/C [3] | viability, T/C [4] | viability, T/C [5] | viability, T/C [6] | viability, T/C [7] | viability, T/C [8] | viability, T/C [9] | viability, T/C [10] | viability, T/C [11] | viability, T/C [12] | viability, T/C [13] | viability, T/C [14] | viability, T/C [15] | further results
1 | NS(=O)(=O)OCC1CC(n2ccc3c(NC4CCc5ccccc54)ncnc32)CC1O (stereo not given) + NC1CC1c1ccc(-c2cccc(O)c2)cc1 | 57.2 nM | 71 nM | 78.6 nM | 76.4 nM | 46.3 nM | 99% | 70.4% | 32.4% | 23.4% | 15.9% | 12.4% | 100% | 78.5% | 39.6% | 21.4% | 15.6% | 12% | 96.2% | 83.2% | 41.1% | viability, T/C [16]: 25.9%; viability, T/C [17]: 16.1%; viability, T/C [18]: 12.8%; viability, T/C [19]: 101%; viability, T/C [20]: 73.7%; viability, T/C [21]: 43.5%; viability, T/C [22]: 27.7%; viability, T/C [23]: 19%; viability, T/C [24]: 14.9%; viability, T/C [25]: 90.8%; viability, T/C [26]: 53.2%; viability, T/C [27]: 40.3%; viability, T/C [28]: 29.9%; viability, T/C [29]: 18.4%; viability, T/C [30]: 15%
2 | Nc1ccccc1NC(=O)c1ccc(CNC(=O)OCc2cccnc2)cc1 + NC1CCC(NC2CC2c2ccccc2)CC1 | 203 nM | 222 nM | 215 nM | 177 nM | 214 nM | 80.6% | 76% | 65.8% | 42.1% | 15.4% | 1.76% | 86.7% | 83.8% | 66.4% | 44.6% | 17% | 1.4% | 76.8% | 79.6% | 68.4% | viability, T/C [16]: 40.9%; viability, T/C [17]: 17.2%; viability, T/C [18]: 1.13%; viability, T/C [19]: 73.6%; viability, T/C [20]: 67.3%; viability, T/C [21]: 59.8%; viability, T/C [22]: 42.7%; viability, T/C [23]: 16%; viability, T/C [24]: 0.8%; viability, T/C [25]: 62%; viability, T/C [26]: 59.3%; viability, T/C [27]: 57.4%; viability, T/C [28]: 47%; viability, T/C [29]: 16.3%; viability, T/C [30]: 0.91%
